Legend:
[1] = system: non-transformed Arabidopsis thaliana (NT); assay: Drug sensitivity test on drug-containing MS medium, non-transformed Arabidopsis thaliana; assay type: in vivo
Protocol: (§1) A bag of mixed salts for Murashige-Skoog (MS) medium (manufactured by Wako Pure Chemical Industries, Ltd.) 20 g of sucrose, 3 mg of thiamin hydrochloride, 5 mg of nicotinic acid, and 0.5 mg of pyridoxine hydrochloride were dissolved in distilled water, and filled up to 1 L with distilled water. After pH adjustment to 5.8 to 6.3 with 1 M KOH, 3 g of Gelrite was added to the solution, and dissolved using a microwave. After that, the mixture was autoclaved to prepare a sterile MS medium. A test drug was added to this sterile MS medium so as to make a final concentration of 1.3, 4.1, 12, 37, 110, or 330 nM. Arabidopsis thaliana from a sterilized seed was seeded in the drug-containing MS medium, and cultivated at 22° C. for 12 to 14 days in a continuous light period.
(§2) Note that the drugs used in this Example were bispyribac-sodium, pyrithiobac-sodium, pyriminobac, bensulfuron-methyl, penoxsulam, pyrazosulfuron-ethyl, amidosulfuron, imazosulfuron, nicosulfuron, and propyrisulfuron.

[2] = system: Arabidopsis thaliana (K31-4-2) transformed with a Kasalath-derived CYP72A31 gene; assay: Drug sensitivity test on drug-containing MS medium, Arabidopsis thaliana transformed with Kasalath-derived CYP72A31 gene; assay type: in vivo; settings: for Rate of emerging of true leaf (%): day 14 after seeding
Protocol: as §1, §2

[3] = system: Wild-type rice (Nipponbare); assay: Drug sensitivity test on gellan gum medium, wild-type rice; assay type: in vivo, Oryza sativa; settings: plant height compared with drug-free medium
Protocol: (§3) Next, 1.6 g of Hoagland's mix (Sigma-Aldrich Corporation) and 3 g of Gelrite (Wako Pure Chemical Industries, Ltd.) were suspended in 1 L of distilled water. Then, the mixture was dissolved and heated in a microwave. After that, the mixture was cooled to 50 to 60 degree C., and BS was added at a final concentration of 1 μM. This mixture was dispensed into 30-mL tubular bottles at 15 mL to prepare a gellan gum medium. Next, CSSL rice paddies were soaked in 0.5% sodium hypochlorite for about 20 minutes, and were then washed well with water. These paddies were soaked in distilled water, and kept at 27 degree C. for 3 to 5 days for germination. Germinating seeds were softly planted in sprout-side up on the gellan gum medium. These samples, together with a beaker filled with distilled water, were placed in a transparent case, which was then covered with a clear-plastic wrap. These samples were grown at 27 degree C. under fluorescent light illumination (14 hours of a light period and 10 hours of a dark period) for 7 to 9 days.
(§4) According to the method of Example 1, a gellan gum medium containing a test drug at a concentration of 0.01, 0.1, 1, or 10 μM was prepared. Rice seeds were sterilized, germinated, seeded in the medium, and cultivated.

[4] = system: CYP72A31-overexpressing rice (K31-4-6-2); assay: Drug sensitivity test on gellan gum medium, CYP72A31-overexpressing rice; assay type: in vivo, Oryza sativa; settings: for CK ratio (%): plant height compared with drug-free medium
Protocol: as §3, §4

[5] = drug 1.3 nM, day 14 after seeding
[6] = drug 4.1 nM, day 14 after seeding
[7] = drug 12 nM, day 14 after seeding
[8] = drug 37 nM, day 14 after seeding
[9] = drug 110 nM, day 14 after seeding
[10] = drug 330 nM, day 14 after seeding
[11] = K31-4-2, Tables 2 and 3, FIGS. 20 to 24
[12] = maximum drug concentration for 80% or more emerging of true leaves, K31-4-2 / NT, day 14

Compound	Rate of emerging of true leaf (%) [1, 5] [%]	Rate of emerging of true leaf (%) [1, 6] [%]	Rate of emerging of true leaf (%) [1, 7] [%]	Rate of emerging of true leaf (%) [1, 8] [%]	Rate of emerging of true leaf (%) [1, 9] [%]	Rate of emerging of true leaf (%) [1, 10] [%]	Resistance of transformed Arabidopsis thaliana to the drug [2, 11]	Rate of emerging of true leaf (%) ([2]; K31-4-2, drug 1.3 nM)	Rate of emerging of true leaf (%) ([2]; K31-4-2, drug 4.1 nM)	Rate of emerging of true leaf (%) ([2]; K31-4-2, drug 12 nM)	Rate of emerging of true leaf (%) ([2]; K31-4-2, drug 37 nM)	Rate of emerging of true leaf (%) ([2]; K31-4-2, drug 110 nM)	Rate of emerging of true leaf (%) ([2]; K31-4-2, drug 330 nM)	Ratio of sensitivity [2, 12]	Ratio of sensitivity ([2]; in vivo)	Resistance of transformed Arabidopsis thaliana to the drug ([2]; in vivo)	also measured
CCCc1ccc2nc(Cl)c(S(=O)(=O)NC(=O)Nc3nc(OC)cc(OC)n3)n2n1 [Propyrisulfuron, propyrisulfuron]	10	0	0	0	0	0	exhibited resistance	100	100	100	70	0	0	>9	–	–	–
COc1cnc(OC)n2nc(NS(=O)(=O)c3c(OCC(F)F)cccc3C(F)(F)F)nc12 [Penoxsulam, penoxsulam]	50	10	0	0	0	0	–	–	–	–	–	–	–	–	>254	exhibited resistance	–
COc1cc(OC)nc(Sc2cccc(Cl)c2C(=O)O)n1 [Pyrithiobac-sodium, pyrithiobac-sodium]	–	–	–	–	–	–	–	–	–	–	–	–	–	–	3	exhibited resistance	Rate of emerging of true leaf (%) ([1]; drug 1.3 nM, day 12 after seeding): 44%; Rate of emerging of true leaf (%) ([1]; drug 4.1 nM, day 12 after seeding): 44%; Rate of emerging of true leaf (%) ([1]; drug 12 nM, day 12 after seeding): 0%; Rate of emerging of true leaf (%) ([1]; drug 37 nM, day 12 after seeding): 0%; Rate of emerging of true leaf (%) ([1]; drug 110 nM, day 12 after seeding): 0%; Rate of emerging of true leaf (%) ([1]; drug 330 nM, day 12 after seeding): 0%
CCc1cc(C)cc(CC)c1-c1c(OC(=O)C(C)(C)C)n2n(c1=O)CCOCC2 [Pinoxaden, pinoxaden]	–	–	–	–	–	–	–	–	–	–	–	–	–	–	–	–	CK ratio (%) ([3]; drug 0.01 μM): 59%; CK ratio (%) ([3]; drug 0.1 μM): 3%; CK ratio (%) ([3]; drug 1 μM): 3%; CK ratio (%) ([3]; drug 10 μM): 3%; Resistance of transformed rice to the drug ([4]; Table 4 and FIG. 25): exhibited resistance; Ratio of sensitivity ([4]; maximum drug concentration for CK ratio of 40% or more, K31-4-6-2 / wild-type rice): 10; CK ratio (%) ([4]; K31-4-6-2, drug 0.01 μM): 95%; CK ratio (%) ([4]; K31-4-6-2, drug 0.1 μM): 48%; CK ratio (%) ([4]; K31-4-6-2, drug 1 μM): 9%; CK ratio (%) ([4]; K31-4-6-2, drug 10 μM): 3%
CON=C(C)c1cccc(Oc2nc(OC)cc(OC)n2)c1C(=O)O [Pyriminobac, pyriminobac]	100	90	10	0	0	0	exhibited resistance	100	100	100	100	100	50	27	–	–	–
COc1cc(OC)nc(NC(=O)NS(=O)(=O)c2ncccc2C(=O)N(C)C)n1 [Nicosulfuron, nicosulfuron]	100	100	0	0	0	0	exhibited resistance	100	100	100	100	100	10	27	–	–	–
COc1cc(OC)nc(NC(=O)NS(=O)(=O)c2c(Cl)nc3ccccn23)n1 [Imazosulfuron, imazosulfuron]	40	10	0	0	0	0	exhibited resistance	100	100	100	100	90	0	>85	–	–	–
CCOC(=O)c1cnn(C)c1S(=O)(=O)NC(=O)Nc1nc(OC)cc(OC)n1 [Pyrazosulfuron-ethyl, pyrazosulfuron-ethyl]	0	0	0	0	0	0	exhibited resistance	100	100	90	0	0	0	>9	–	–	–
COc1cc(OC)nc(NC(=O)NS(=O)(=O)N(C)S(C)(=O)=O)n1 [Amidosulfuron, amidosulfuron]	100	100	0	0	0	0	–	–	–	–	–	–	–	–	3	exhibited resistance	–
COC(=O)c1ccccc1CS(=O)(=O)NC(=O)Nc1nc(OC)cc(OC)n1 [Bensulfuron-methyl, bensulfuron-methyl]	30	0	0	0	0	0	–	–	–	–	–	–	–	–	>28	exhibited resistance	–

Source: US10000765B2, “Gene encoding cytochrome P450, and use thereof” (NATIONAL INSTITUTE OF AGROBIOLOGICAL SCIENCES, priority 2011, dated 2018)
